Measured values from patent US8283373B2, “Inhibitors of cytosolic phospholipase A2” (Pfizer Inc., priority 2005, dated 2012).

How the values were obtained:
[1] = tested on: serum thromboxane B2; assay: Thromboxane B2 levels in rats with FeCl3 induced thrombosis; format: in vivo, rat; conditions: rats subjected to ferric chloride injury, ELISA
Method: Blood was collected from rats that were dosed with vehicle, the compound of Example 14 or the compound of Example 25, and subjected to the ferric chloride Injury protocol above. Blood was collected from the vena cava and blood coagulation was allowed to take place for 1 hour at 37 degree Celsius. Serum was then isolated and serum thromboxane B2 levels were determined by ELISA.

[2] = tested on: Human platelet aggregation; assay: Platelet Function Analyzer (PFA-100) study; format: cell-based; conditions: whole human blood
Method: Human platelet aggregation was studied using the platelet function analyzer (PFA-100®). Human blood was collected from volunteers who had denied taking any platelet inhibitory medications over the previous two weeks. Blood was collected in 3.2% sodium citrate Vacutainer tubes (Becton Dickinson). Tubes were inverted 5 times and the blood was transferred to 15 ml polypropylene conical tubes. […] Tubes were inverted 10 times to mix, and allowed to sit at room temperature for 10 minutes prior to run in PFA-100. The manufacturers protocol was followed for the PFA-100 using Collagen/Epinephrine cartridges (0.5% DMSO alone in whole blood gave closure times of 125+/−13.9 seconds). Maximum closure time is 300 seconds, as set by the manufacturer.
All compounds were efficacious in the platelet function assay.

[3] = target: T1, cPLA2α (Homo sapiens, UniProt P47712); assay: GLU Micelle Assay; format: biochemical
T1 sequence (P47712 1-749): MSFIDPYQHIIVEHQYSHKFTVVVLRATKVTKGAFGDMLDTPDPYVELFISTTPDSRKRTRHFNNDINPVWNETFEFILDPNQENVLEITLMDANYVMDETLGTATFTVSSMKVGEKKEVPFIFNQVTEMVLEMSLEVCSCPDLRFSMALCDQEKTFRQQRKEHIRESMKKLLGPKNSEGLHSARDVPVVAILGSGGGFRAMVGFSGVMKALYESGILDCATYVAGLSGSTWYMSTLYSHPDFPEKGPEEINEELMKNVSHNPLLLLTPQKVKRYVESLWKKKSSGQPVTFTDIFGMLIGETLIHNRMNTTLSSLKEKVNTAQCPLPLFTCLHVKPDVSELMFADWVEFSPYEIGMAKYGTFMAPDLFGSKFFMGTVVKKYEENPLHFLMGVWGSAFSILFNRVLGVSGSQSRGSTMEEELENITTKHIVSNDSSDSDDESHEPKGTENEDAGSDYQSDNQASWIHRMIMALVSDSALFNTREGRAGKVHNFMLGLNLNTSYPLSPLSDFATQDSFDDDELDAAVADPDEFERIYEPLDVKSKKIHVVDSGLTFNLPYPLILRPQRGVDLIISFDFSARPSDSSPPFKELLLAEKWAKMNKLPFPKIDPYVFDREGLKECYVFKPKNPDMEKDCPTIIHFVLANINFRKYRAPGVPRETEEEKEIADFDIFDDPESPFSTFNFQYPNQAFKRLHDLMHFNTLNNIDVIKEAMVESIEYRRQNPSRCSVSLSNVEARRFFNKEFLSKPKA
Outline: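 Fluorogenic micelle assay with 1 μg/ml cPLA2α and 90 μM GLU substrate plus 120 μM DTPC in 940 μM Triton X-100, 50 mM Hepes pH 7.4, 0.3 mM EDTA, 1 mM CaCl2, 300 mM KCl. Fluorescence (ex 355/em 460) was read every 4 min for 84 min. Percent inhibition came from slopes relative to positive and negative controls.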

[4] = tested on: FeCl3-induced arterial thrombosis; assay: FeCl3-induced model of arterial thrombosis; format: in vivo; conditions: rat, 25 mg/kg oral gavage 2 h before FeCl3 injury
Method: Two hours prior to induction of vascular injury, Sprague Dawley outbreed rats (80-100 gram of body weight) received 4-(3-{5-chloro-1-(diphenylmethyl)-2-[2-({[2-fluoro-6-(trifluoromethyl)benzyl]sulfonyl}amino)ethyl]-1H-indol-3-yl}propyl)benzoic acid (Example 14) or 4-(3-{5-chloro-1-(diphenylmethyl)-2-[2-({[2-(trifluoromethoxy)benzyl]sulfonyl}amino)ethyl]-1H-indol-3-yl}propyl)benzoic acid (Example 25) at a dose of 25 mg/kg by oral gavage. The total volume of gavage was 0.5 ml. The control group of animals had been treated with only vehicle. Fifteen minutes before vascular injury rats were anesthetized by an intramuscular injection of a ketamine/xylazyne mixture. Following anesthesia the left carotid artery was dissected and exposed for further measurements. For induction of prothrombotic injury, a round piece of filter paper (2 mm in diameter) soaked in 10% of FeCl3 solution was applied onto the wall of the exposed vessel. After 5 minutes the filter paper was removed and the 1PRB perivasular Doppler flow probe (Transonic Systems Inc.) was secured around the carotid artery to measure blood flow. Blood flow was recorded for a total period of 30 minutes using Transonic Flow Meter (model TS420, Transonic Systems Inc.) and Windaq data acquisition software.

[5] = tested on: experimental autoimmune encephalomyelitis (EAE); assay: Experimental autoimmune encephalomyelitis (EAE) model of multiple sclerosis; format: in vivo, mouse; conditions: administered from the time of immunization, or in mice with or close to EAE
Method: Six groups of B6 mice were immunized with MOG/CFA and injected with pertussis toxin to induce experimental autoimmune encephalomyelitis (EAE), an animal model of Multiple sclerosis. Three groups of mice were treated with vehicle, 4-{3-[1-benzhydryl-5-chloro-2-(2-{[(2,6-dimethylbenzyl)sulfonyl]amino}ethyl)-1H-indol-3-yl]propyl}benzoic acid (Compound A), or 4-{2-[1-benzhydryl-5-chloro-2-(2-{[(3,4-dichlorobenzyl)sulfonyl]amino}-ethyl)-1H-indol-3-yl]ethoxy}benzoic acid (Compound B) from the day of Immunization (orally, 100 mg/kg, twice/day). Another three groups of mice were treated with vehicle, Compound A or Compound B starting on the day of EAE onset (day 15) (orally, 100 mg/kg, twice/day). […] The results are shown in the Table below, wherein mean clinical score is a mean of clinical evaluation of each animal for that particular day.
Animals are Scored as Follows:
• 0—no clinical signs of EAE (no paralysis) • 1—paralysis of tail • 2—paralysis of tail and partial hind leg paralysis • 3—paralysis of tail and complete hind leg paralysis • 4—paralysis of tail, complete hind leg paralysis and a partial front leg paralysis • 5—moribund animal (all four limbs paralyzed, lack of responsiveness, these mice were immediately euthanized).
In addition, the compounds of Examples 14 and 25 were also found to be efficacious in the mouse experimental autoimmune encephalomyelitis (EAE) model of multiple sclerosis. As shown by the data in the Table below, these compounds led to a delayed onset of disease and reduced severity of disease when administered orally in doses as low as 2.5 mg/kg.

[6] = tested on: TXB2; assay: Rat Whole Blood Assay (A23187-stimulated TXB2); format: cell-based; conditions: Rattus norvegicus; A23187 5 μM
Outline: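 Heparinized male Sprague-Dawley rat blood pre-incubated 15 min at 37 °C with compound or DMSO, then stimulated with 5 μM (final) A23187 for 10 min at 37 °C. Stopped with 20 mM EDTA; TXB2 in methanol-extracted plasma measured by ELISA.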

[7] = tested on: serum thromboxane B2; assay: Thromboxane B2 levels in the ApoE KO mouse model; format: in vivo; conditions: ApoE KO mice, 10 mg/kg by oral gavage; vehicle 267.9±34.3
Method: Blood was collected through the retro-orbital siunus and left to coagulate at 37° C. for one hour. Serum was then isolated and assayed for thromboxane B2 by ELISA.
In a separate experiment, ApoE KO mice were dosed with vehicle or the compound of Example 25 at 10 mg/kg by oral gavage. Blood was collected through the retro-orbital siunus and left to coagulate at 37° C. for one hour. Serum was then isolated and assayed for thromboxane B2 by ELISA.

IC50 [3] [nM] | IC50 [6] [nM] | Compound | serum thromboxane B2 levels (FIG. 3) [1] | platelet aggregation in human blood, in vitro (PFA-100, FIG. 1) [2] | PFA-100 closure time ([2]; Collagen/Epinephrine cartridges, 1.25 μg/ml) | blood flow and thrombus formation (FIG. 2) [4] | prevention of EAE / reduction of clinical severity [5] | efficacy in PFA-100 platelet function assay ([2]; at concentrations as low as 0.3 μg/ml) | serum Thromboxane concentration [7] [ng/mL]
30 | 20 | O=C(O)c1ccc(CCCc2c(CCNS(=O)(=O)Cc3c(F)cccc3C(F)(F)F)n(C(c3ccccc3)c3ccccc3)c3ccc(Cl)cc23)cc1 [Example 14, 4-(3-{5-chloro-1-(diphenylmethyl)-2-[2-({[2-fluoro-6-(trifluoromethyl)benzyl]sulfonyl}amino)ethyl]-1H-indol-3-yl}propyl)benzoic acid] | reduction of serum thromboxane B2 levels | inhibition of platelet aggregation | increased closure time | improved blood flow and reduction of thrombus formation | can prevent EAE |  | 
68 | 120 | O=C(O)c1ccc(CCCc2c(CCNS(=O)(=O)CCc3ccccc3C(F)(F)F)n(C(c3ccccc3)c3ccccc3)c3ccc(Cl)cc23)cc1 [Example 15, 4-[3-(5-chloro-1-(diphenylmethyl)-2-{2-[({2-[2-(trifluoromethyl)phenyl]ethyl}sulfonyl)amino]ethyl}-1H-indol-3-yl)propyl]benzoic acid] |  |  |  | improved blood flow and reduction of thrombus formation |  |  | 
13 | 30 | O=C(O)c1ccc(CCCc2c(CCNS(=O)(=O)Cc3ccccc3OC(F)(F)F)n(C(c3ccccc3)c3ccccc3)c3ccc(Cl)cc23)cc1 [Example 25, 4-(3-{5-chloro-1-(diphenylmethyl)-2-[2-({[2-(trifluoromethoxy)benzyl]sulfonyl}amino)ethyl]-1H-indol-3-yl}propyl)benzoic acid] | reduction of serum thromboxane B2 levels | inhibition of platelet aggregation |  |  | can prevent EAE | efficacious | 9.4 ± 5.0
